In test [1] the test system is uptake of SOD1 aggregates into neuro-2a cells. The experiment in a line: flow cytometric determination of the uptake of fluorescently labeled SOD1 aggregates into neuro-2a cells. Type of test: cell-based. The following applies: for uptake of fluorescently labeled SOD1 aggregates after treatment with endocytosis inhibitors: flow cytometry, FIG. 3. In general terms: Flow cytometry measures light scatter and fluorescence of single cells or particles in a stream.

A further test relates to prion diseases. Conditions: in vivo; cited from earlier work.
In a further test the test system is ALS. Conditions: clinical studies, compared to placebo, some individuals; cited from earlier work.
Test [2] deals with uptake of SOD1 aggregates into primary cortical neurons. The experiment in a line: flow cytometric determination of the uptake of fluorescently labeled SOD1 aggregates into primary cortical neurons. Format: cell-based. Conditions: primary cortical neurons of wild-type mice, treated as for neuro-2a cells, FIG. 7A. How it is done: In order to investigate whether the results in neuro-2a cells can be expanded to primary cortical neurons, isolated, cultured and treated primary cortical neurons of wild-type mice were treated with heparinase and chondroitinase as previously for neuro-2a cells, before they were exposed to DyLight 488-labeled SOD1 aggregates (FIG. 7A). Likewise, the uptake of SOD1 aggregates after blocking with heparin was tested, as previously carried out for neuro-2a cells (FIG. 7A). The uptake of SOD1 aggregates was again quantified by flow cytometry. […] The “***” or “****” above the bars indicate the statistical significance of the results. “***” corresponds to a significance with p≤0.001 and “****” corresponds to a significance with p≤0.0001 in comparison to the control.

For the compound pentosan polysulfate sodium [PPS], the “cellular uptake of fluorescently labeled wild-type and mutated SOD1 aggregates after PPS treatment” value in test [1] (neuro-2a cells, increasing PPS concentrations, FIG. 5) was “competitively inhibited the cellular uptake of fluorescently labeled wild-type and mutated SOD1 aggregates at non-cytotoxic concentrations”. The “survival of infected animals” value in the test on prion diseases is “extending the survival of infected animals after intracerebroventricular perfusion in a dose-dependent manner”.

With `C=C1[C@@H](C)[C@H]2[C@H](Cc3ccccc3)NC(=O)[C@]23[C@H](OC(C)=O)/C=C/[C@@](C)(O)C(=O)[C@@H](C)C/C=C/[C@H]3[C@@H]1O` [cytochalasin D], in test [1] (neuro-2a cells), the “uptake of fluorescently labeled SOD1 aggregates after treatment with endocytosis inhibitors” value (“uptake … with endocytosis inhibitors” below) is “significantly inhibited the uptake”.

For the compound `CCN(c1nc(N)c(C(=O)N=C(N)N)nc1Cl)C(C)C` [EIPA, 5-N-ethyl-N-isopropyl amiloride], the “uptake … with endocytosis inhibitors” value in test [1] (neuro-2a cells) is “reduced the uptake of SOD1 aggregates significantly”.

With `O=c1c(-c2ccc(O)cc2)coc2cc(O)cc(O)c12` [genistein, Genistein], the “uptake … with endocytosis inhibitors” value in test [1] (neuro-2a cells) is listed as “Neither the chloropromazine treatment nor the genistein treatment inhibited the uptake of SOD1 aggregates significantly”.

On to methyl-β-cyclodextrin, for which the “uptake … with endocytosis inhibitors” value in test [1] (neuro-2a cells) was “significantly reduced the uptake of SOD1 aggregates”.

Take `CC1=NN(c2ccccc2)C(=O)C1` [Radicava, edaravone]: the “decrease in bodily function measured by ALSFRS-R” value in the test on ALS is listed as “significantly lower decrease in bodily function compared to placebo”.

As for `[Na+].[O-][Cl+2]([O-])[O-]` [sodium chlorate], the “uptake of SOD1 aggregates after sodium chlorate treatment” value in test [1] is reported as “reduced the uptake of SOD1 aggregates in a dose-dependent manner”.

As to `Oc1ccc2ccccc2c1SSc1c(O)ccc2ccccc12` [IPA-3, 2,2′-dihydroxy-1,1′-dinaphthyl disulfide], the “uptake … with endocytosis inhibitors” value in test [1] (neuro-2a cells) was “reduced the uptake of SOD1 aggregates significantly”.

For the compound heparin, in test [1] (aggregates treated at 4° C. with 1 mg/mL heparin for 6 hours, neuro-2a cells incubated 6 hours, FIG. 4B), the “uptake of SOD1 aggregates pre-treated with heparin” value is “inhibited the uptake of both wild-type and mutated SOD1 aggregates”. Besides, the “uptake of DyLight 488-labeled SOD1 aggregates into primary cortical neurons” value in test [2] is listed as “inhibits uptake of SOD1 aggregates into primary cortical neurons”.

Consider `O=C(N/N=C/c1ccc(O)c(O)c1)c1cc2ccccc2cc1O` [dynasore], for which the “uptake … with endocytosis inhibitors” value in test [1] (neuro-2a cells) is given as “inhibited the uptake of SOD1 aggregates”.

Take `CN(C)CCCN1c2ccccc2Sc2ccc(Cl)cc21` [chloropromazine, Chlorpromazine]: in test [1] (neuro-2a cells), the “uptake … with endocytosis inhibitors” value is given as “Neither the chloropromazine treatment nor the genistein treatment inhibited the uptake of SOD1 aggregates significantly”.

The values above are taken from patent US20240033282A1, “METHOD FOR IDENTIFYING AND/OR FOR OBTAINING AN ACTIVE SUBSTANCE FOR THE TREATMENT AND THERAPY OF FAMILIAL AMYOTROPHIC LATERAL SCLEROSIS, AND USE OF AN ACTIVE SUBSTANCE FOR THE TREATMENT OF THIS DISEASE” (Forschungszentrum Juelich GmbH, priority 2020, published 2024).
